Test results published in publication PMC5288202, “Simultaneous inhibition of Vps34 kinase would enhance PI3Kδ inhibitor cytotoxicity in the B-cell malignancies” (Oncotarget, 2016).
Like-named read-outs stand apart in the source and are kept apart here.

What was measured:
Type in all cases: cell-based
U937 = test: Anti-proliferative effect; conditions: Homo sapiens, U-937; AML(FLT3wt); read-out: GI50 U937
CMK = test: Anti-proliferative effect; conditions: Homo sapiens, read-out: GI50 CMK
NB4 = test: Anti-proliferative effect; conditions: Homo sapiens; AML-3 (FLT3wt); read-out: GI50 NB4
HL-60 = test: Anti-proliferative effect; conditions: Homo sapiens, HL-60; AML (FLT3 wt); read-out: GI50 HL-60
OCI-AML-3 = test: Anti-proliferative effect; conditions: Homo sapiens, AML(FLT3wt)
OCI-AML-2 [1] = test: Anti-proliferative effect; conditions: Homo sapiens, OCI-AML2; AML(FLT3wt); read-out: GI50 OCI-AML-2
NOMO-1 = test: Anti-proliferative effect; conditions: Homo sapiens, NOMO-1; AML (FLT3wt); read-out: GI50 NOMO-1
SKM-1 = test: Anti-proliferative effect; conditions: Homo sapiens, SKM-1; AML(FLT3wt); read-out: GI50 SKM-1
MOLM-14 = test: Anti-proliferative effect; conditions: Homo sapiens, MOLM-14; AML (FLT3-ITD)
MOLM-13 = test: Anti-proliferative effect; conditions: Homo sapiens, AML(FLT3-ITD)
MV4-11 [2] = test: Anti-proliferative effect; conditions: Homo sapiens, MV4-11; AML (FLT3-ITD)
HEL = test: Anti-proliferative effect; conditions: Homo sapiens, AML(FLT3wt), read-out: GI50 HEL
HT = test: Anti-proliferative effect; conditions: Homo sapiens, B-cell lymphoma, read-out: GI50 HT
Ramos = test: Anti-proliferative effect; conditions: Homo sapiens, Burrkit lymphoma, read-out: GI50 Ramos
Namalwa [3] = test: Anti-proliferative effect; conditions: Burrkit lymphoma; read-out: GI50 Namalwa
MEC-2 [4] = test: Anti-proliferative effect
Hs 505T = test: Anti-proliferative effect; conditions: Homo sapiens; CLL; read-out: GI50 Hs 505T
MEC-1 = test: Anti-proliferative effect; conditions: Homo sapiens, MEC1; CLL
pERK in MEC-2 cells = test: pERK immunoblotting
From the text: The following antibodies were purchased from Cell Signaling Technology: Akt(#4691), Phospho-Akt(Thr308)(#4056), Phospho-Akt(Ser473)(#4060), GAPDH, GSK-3β(#9315), Phospho-GSK-3β(#9323), FoxO1(#2880), Phospho-FoxO1 (Thr24)/FoxO3a(Thr32)/FoxO4(Thr28)(#2599), PRAS40(#2691), Phospho-PRAS40 (Thr246)(#2997), 4E-BP1(#9644), p70 S6K(#2708), Phospho-p70 S6K (Thr389)(#9234). SQSTM1/p62 (D5E2)(#8025), LC3B(#12513). PARP(#9532), Caspase-3(#9665), Phospho-p44/42 MAPK (Erk1/2) (Thr202/Tyr204)(#4377), p44/42 MAPK (Erk1/2) (#4695), Phospho-NF-ΚB P65 (Ser 536)(#3033), NF-ΚB P65(#4764). Lysophosphatidic Acid (#sc-201053, Santa Cruz), Recombinant Human PDGF-BB (#220-BB, R&D), Recombinant Human C5a (Peprotech, #300-70), goat anti-IgM (#5C07615, Meridian). LC3B antibody (#3868, CST). Tubulin antibody (#8035, Santa Cruz). EEA1 antibody (#610456, BD Bioscience) and LAMP1 antibody (#24170, Abcam). Secondary antibodies, Alexa488-anti-mouse, Alexa594-anti-rabbit and Prolong gold mounting medium with DAPI were purchased from Invitrogen.

[5] = test system: LC3B puncta in HeLa cells; test: Immunofluorescence of LC3B puncta; conditions: 16 hours
Protocol: (§1) HeLa cells were treated with different concentrations of inhibitors for 16 hours. For all immunofluorescence experiments, cells were fixed in -20 °C methanol for 5 minutes or 3.7% (v/v) formaldehyde in phosphate-buffered saline (PBS) for 20 minutes. For LC3B staining, cells were fixed in -20 °C methanol. For EEA1 and LAMP1 staining, cells were fixed in PBS+ formaldehyde. Cells were then permeabilized with TBSTx (0.1% Triton X-100), blocked in AbDil (TBSTx + 2% BSA + 0.1% NaN3), and probed with primary and secondary antibodies diluted in AbDil. Cells were rinsed thoroughly with TBSTx and mounted by anti-fade prolong Gold with DAPI. Images were taken using a Leica DMI4000B fluorescent microscope. All experiments were repeated at least three times). […] Cells were lysed in lysis buffer. P62, LC3B, and GAPDH antibodies were used for immunoblotting.

[6] = test system: LAMP1 localization in HeLa cells; test: Immunofluorescence of LAMP1 localization
Protocol: as §1

MEC-2 [7] = test: Drug combination study (CellTiter-Glo, 72 hours); conditions: MEC2, 72 h, read-out: Relative activity(%) (MEC-2)
Protocol: (§2) A combination of the PI3K kinase inhibitor CAL101 with the VPS34 inhibitor VPS34-IN-1, was used to treat the cell lines. Cell proliferation were determined after treatment with the compounds for 72 hours. Cell viability was measured using the CellTiter–Glo assay (Promega, USA), data were normalized to control groups (DMSO) and represented by the mean of three independent measurements with a standard error <20%.

MV4-11 [8] = test: Drug combination study (CellTiter-Glo, 72 hours); conditions: Homo sapiens, VPS34-IN-1 3.3 μM, normalized to DMSO, read-out: Relative activity(%) (MV4-11)
Protocol: as §2

Namalwa [9] = test: Drug combination study (CellTiter-Glo, 72 hours); conditions: VPS34-IN-1 3.3 μM, normalized to DMSO, read-out: Relative activity(%) (Namalwa)
Protocol: as §2

OCI-AML-2 [10] = test: Drug combination study (CellTiter-Glo, 72 hours); conditions: Homo sapiens, OCI-AML2, VPS34-IN-1 1.1 μM, normalized to DMSO, read-out: Relative activity(%) (OCI-AML-2)
Protocol: as §2

Row | SMILES | GI50 (U937) | GI50 (CMK; AML(FLT3wt)) | GI50 (NB4) | GI50 (HL-60) | GI50 (OCI-AML-3) | GI50 (OCI-AML-2 [1]) | GI50 (NOMO-1) | GI50 (SKM-1) | GI50 (MOLM-14) | GI50 (MOLM-13) | GI50 (MV4-11 [2]) | GI50 (HEL) | GI50 (HT) | GI50 (Ramos) | GI50 (Namalwa [3]) | GI50 (Hs 505T) | GI50 (MEC-1) | effect on pERK (pERK in MEC-2 cells) | further results
1 | CC[C@H](Nc1ncnc2[nH]cnc12)c1nc2cccc(F)c2c(=O)n1-c1ccccc1 [CAL-101] | > 10000 nM | > 10000 nM | > 10000 nM | > 10000 nM | 2400 nM | > 10000 nM | > 10000 nM | > 10000 nM | 7800 nM | > 10000 nM | > 10000 nM | > 10000 nM | > 10000 nM | > 10000 nM | > 10000 nM | > 10000 nM | > 10000 nM | significantly inhibited | GI50 (MEC-2 [4]; MEC2, CLL, read-out: GI50 MEC-2): > 10000 nM
2 | CC(C)(O)CNc1ncc(-c2ccnc(Nc3ccnc(Cl)c3)n2)c(CC2CC2)n1 [VPS34-IN-1] | 2100 nM | – | 6400 nM | 510 nM | 3600 nM | 6600 nM | 1800 nM | 6400 nM | 7800 nM | 700 nM | 2400 nM | 1700 nM | 1400 nM | 3300 nM | 8100 nM | 3000 nM | 3700 nM | – | Effect on LC3B puncta [5]: increased LC3B puncta; Effect on lysosome marker LAMP1 localization [6]: affected; GI50 (CMK): 5900 nM; GI50 (MEC-2 [4]; MEC2, read-out: GI50 MEC-2): 3100 nM; activity at 10 µM (MEC-2 [7]): 30.4%; activity at 3.3 µM (MV4-11 [8]): 43.6%; activity at 3.3 µM (Namalwa [9]): 77.8%; activity at 1.1 µM (OCI-AML-2 [10]): 82.8%
3 | CS(=O)(=O)N1CCN(Cc2cc3nc(-c4cccc5[nH]ncc45)nc(N4CCOCC4)c3s2)CC1 [GDC-0941] | 1600 nM | 300 nM | 1000 nM | 160 nM | 730 nM | 2000 nM | 1000 nM | 300 nM | 300 nM | 150 nM | 1400 nM | > 10000 nM | 500 nM | 2100 nM | 390 nM | – | – | significantly inhibited | –
